{"source": "paper PMC5218480", "about": "(PLoS ONE, 2017)", "test_system": "MV-4-11 cells", "assay": "Gene expression microarray analysis (Affymetrix PrimeView) and GSEA", "assay_type": "cell-based, human", "design": "RFU PODN (11730768_x_at) / Fold change /veh PODN (11730768_x_at) / RFU LINC00158 (11744669_a_at) / Fold change /veh LINC00158 (11744669_a_at) / RFU DUSP10 (11751237_a_at) / Fold change /veh DUSP10 (11751237_a_at) / RFU ID3 (11757404_x_at) / Fold change /veh ID3 (11757404_x_at) / RFU PLEKHG5 (11737974_s_at) / Fold change /veh PLEKHG5 (11737974_s_at) / RFU LRRC4B (11730491_at) / Fold change /veh LRRC4B (11730491_at) / RFU GIMAP4 (11747438_a_at) / Fold change /veh GIMAP4 (11747438_a_at) / RFU KRT8 (11758183_x_at) / Fold change /veh KRT8 (11758183_x_at) / RFU CNN1 (11734310_a_at) / Fold change /veh CNN1 (11734310_a_at) / RFU VPS37D (11726825_at) / Fold change /veh VPS37D (11726825_at) / RFU C10orf10 (11716522_x_at) / Fold change /veh C10orf10 (11716522_x_at) / RFU KIR2DL2 /// KIR2DL4 /// KIR2DL5A /// KIR2DL5B /// KIR2DS1 /// KIR2DS2 /// KIR2DS3 /// KIR2DS4 /// KIR3DL3 /// KIR3DL3 /// KIR3DS1 (11738374_at) / Fold change /veh KIR2DL2 /// KIR2DL4 /// KIR2DL5A /// KIR2DL5B /// KIR2DS1 /// KIR2DS2 /// KIR2DS3 /// KIR2DS4 /// KIR3DL3 /// KIR3DL3 /// KIR3DS1 (11738374_at) / RFU C1QL1 (11718748_at) / Fold change /veh C1QL1 (11718748_at) / RFU TMPRSS4 (11747572_a_at) / Fold change /veh TMPRSS4 (11747572_a_at) / RFU HAMP (11756126_x_at) / Fold change /veh HAMP (11756126_x_at) / RFU RNFT2 (11725882_a_at) / Fold change /veh RNFT2 (11725882_a_at) / RFU NR4A2 (11747474_a_at) / Fold change /veh NR4A2 (11747474_a_at) / RFU ABCC12 (11746883_a_at) / Fold change /veh ABCC12 (11746883_a_at) / RFU TMEM136 (11760407_x_at) / Fold change /veh TMEM136 (11760407_x_at) / RFU CLDN22 /// WWC2 (11732394_at) / Fold change /veh CLDN22 /// WWC2 (11732394_at) / RFU HLA-DPB1 (11760878_x_at) / Fold change /veh HLA-DPB1 (11760878_x_at) / RFU SPINT1 (11716480_a_at) / Fold change /veh SPINT1 (11716480_a_at) / RFU GAP43 (11754022_s_at) / Fold change /veh GAP43 (11754022_s_at) / RFU A4GNT (11735810_at) / Fold change /veh A4GNT (11735810_at) / RFU PRB3 (11715151_x_at) / Fold change /veh PRB3 (11715151_x_at) / RFU TUBB4B (11761932_at) / Fold change /veh TUBB4B (11761932_at) / RFU CAPN14 (11732068_a_at) / Fold change /veh CAPN14 (11732068_a_at) / RFU TMCC2 (11721928_a_at) / Fold change /veh TMCC2 (11721928_a_at) / RFU IRGQ (11745062_a_at) / Fold change /veh IRGQ (11745062_a_at) / RFU FAM174B (11720279_a_at) / Fold change /veh FAM174B (11720279_a_at) / RFU TMPRSS4 (11748680_a_at) / Fold change /veh TMPRSS4 (11748680_a_at) / RFU FAM212B (11763350_a_at) / Fold change /veh FAM212B (11763350_a_at) / RFU PLEKHG5 (11743358_a_at) / Fold change /veh PLEKHG5 (11743358_a_at) / RFU ZSCAN30 (11745921_a_at) / Fold change /veh ZSCAN30 (11745921_a_at) / RFU CMKLR1 (11741424_a_at) / Fold change /veh CMKLR1 (11741424_a_at) / RFU LOC101060620 /// MAPK8IP1 (11723275_at) / Fold change /veh LOC101060620 /// MAPK8IP1 (11723275_at) / RFU SPTSSB (11747773_x_at) / Fold change /veh SPTSSB (11747773_x_at) / RFU PRSS12 (11739890_at) / Fold change /veh PRSS12 (11739890_at) / RFU BIN1 (11741810_x_at) / Fold change /veh BIN1 (11741810_x_at) / RFU WNT11 (11732464_a_at) / Fold change /veh WNT11 (11732464_a_at) / RFU C10orf10 (11716521_a_at) / Fold change /veh C10orf10 (11716521_a_at) / RFU C5orf56 (11738089_at) / Fold change /veh C5orf56 (11738089_at) / RFU CYB561 (11721691_x_at) / Fold change /veh CYB561 (11721691_x_at) / RFU ANKRD19P (11752326_a_at) / Fold change /veh ANKRD19P (11752326_a_at) / RFU OR2T12 /// OR2T33 /// OR2T8 (11738714_s_at) / Fold change /veh OR2T12 /// OR2T33 /// OR2T8 (11738714_s_at) / RFU VCAN (11748164_a_at) / Fold change /veh VCAN (11748164_a_at) / RFU JSRP1 (11732532_at) / Fold change /veh JSRP1 (11732532_at) / RFU KRTAP10-11 (11738290_x_at) / Fold change /veh KRTAP10-11 (11738290_x_at) / RFU MYO3A (11730013_a_at) / Fold change /veh MYO3A (11730013_a_at) / RFU EBF3 (11725865_a_at) / Fold change /veh EBF3 (11725865_a_at) / RFU CAMK2N1 (11719241_x_at) / Fold change /veh CAMK2N1 (11719241_x_at) / RFU C5orf56 (11738088_a_at) / Fold change /veh C5orf56 (11738088_a_at) / RFU OLFML3 (11715873_a_at) / Fold change /veh OLFML3 (11715873_a_at) / RFU LOC100653217 /// NTM (11731650_a_at) / Fold change /veh LOC100653217 /// NTM (11731650_a_at) / RFU MAPK11 (11762145_a_at) / Fold change /veh MAPK11 (11762145_a_at) / RFU FIZ1 (11724087_x_at) / Fold change /veh FIZ1 (11724087_x_at) / RFU OASL (11726364_x_at) / Fold change /veh OASL (11726364_x_at) / RFU SOX15 (11748057_x_at) / Fold change /veh SOX15 (11748057_x_at) / RFU CD79A (11719716_a_at) / Fold change /veh CD79A (11719716_a_at) / RFU HIST1H1D (11736915_at) / Fold change /veh HIST1H1D (11736915_at) / RFU CASKIN2 (11723855_a_at) / Fold change /veh CASKIN2 (11723855_a_at) / RFU LOC730098 (11760151_x_at) / Fold change /veh LOC730098 (11760151_x_at) / RFU OR4N2 (11742367_at) / Fold change /veh OR4N2 (11742367_at) / RFU PRRT2 (11749266_a_at) / Fold change /veh PRRT2 (11749266_a_at) / RFU SNX32 (11753110_a_at) / Fold change /veh SNX32 (11753110_a_at) / RFU CDHR5 (11726645_a_at) / Fold change /veh CDHR5 (11726645_a_at) / RFU RCAN1 (11760418_a_at) / Fold change /veh RCAN1 (11760418_a_at) / RFU FAM167A (11723789_a_at) / Fold change /veh FAM167A (11723789_a_at) / RFU FAM26E (11764081_at) / Fold change /veh FAM26E (11764081_at) / RFU ISYNA1 (11749810_s_at) / Fold change /veh ISYNA1 (11749810_s_at) / RFU ACY1 (11761880_at) / Fold change /veh ACY1 (11761880_at) / RFU 11764098_at / Fold change /veh 11764098_at / RFU SAMD14 (11745864_x_at) / Fold change /veh SAMD14 (11745864_x_at) / RFU NPB (11741838_a_at) / Fold change /veh NPB (11741838_a_at) / RFU TMPRSS6 (11731388_a_at) / Fold change /veh TMPRSS6 (11731388_a_at) / RFU KRTAP10-2 (11738614_at) / Fold change /veh KRTAP10-2 (11738614_at) / RFU ARHGAP8 /// PRR5-ARHGAP8 (11727945_x_at) / Fold change /veh ARHGAP8 /// PRR5-ARHGAP8 (11727945_x_at) / RFU KRTAP5-7 /// NADSYN1 (11734609_at) / Fold change /veh KRTAP5-7 /// NADSYN1 (11734609_at) / RFU RASL12 (11751679_a_at) / Fold change /veh RASL12 (11751679_a_at) / RFU CDKN2B (11736163_a_at) / Fold change /veh CDKN2B (11736163_a_at) / RFU PRF1 (11729649_at) / Fold change /veh PRF1 (11729649_at) / RFU, ZNF638 /// ZNF638-IT1 / Fold change vs veh, ZNF638 /// ZNF638-IT1 / RFU, PANK3 / Fold change vs veh, PANK3 / RFU, SH3YL1 / Fold change vs veh, SH3YL1 / RFU, ZEB2 / Fold change vs veh, ZEB2 / RFU, NRIP1 / Fold change vs veh, NRIP1 / RFU, PTTG1IP / Fold change vs veh, PTTG1IP / RFU, CAPN2 / Fold change vs veh, CAPN2 / RFU, MED14 / Fold change vs veh, MED14 / RFU, SNORA58 / Fold change vs veh, SNORA58 / RFU, C1orf63 / Fold change vs veh, C1orf63 / RFU, LRRFIP1 / Fold change vs veh, LRRFIP1 / RFU, NDUFAF7 / Fold change vs veh, NDUFAF7 / RFU, SLC12A2 / Fold change vs veh, SLC12A2 / RFU, IBTK / Fold change vs veh, IBTK / RFU, ESF1 / Fold change vs veh, ESF1 / Fold change vs veh, TMEM50B / RFU, TAOK1 / Fold change vs veh, TAOK1 / RFU, ACBD3 / Fold change vs veh, ACBD3 / RFU, TMA16 / Fold change vs veh, TMA16 / RFU, RWDD3 / Fold change vs veh, RWDD3 / RFU, BCAT1 / Fold change vs veh, BCAT1 / RFU, EDEM3 / Fold change vs veh, EDEM3 / RFU, TMEM33 / Fold change vs veh, TMEM33 / RFU, WDR75 / Fold change vs veh, WDR75 / RFU, AHCTF1 / Fold change vs veh, AHCTF1 / RFU, TFRC / Fold change vs veh, TFRC / RFU, ZDHHC17 / Fold change vs veh, ZDHHC17 / RFU, NOM1 / Fold change vs veh, NOM1 / RFU, ARL8B / Fold change vs veh, ARL8B / RFU, ZBTB11 / Fold change vs veh, ZBTB11 / RFU, TAMM41 / Fold change vs veh, TAMM41 / RFU, KIAA1704 /// LOC100996395 / Fold change vs veh, KIAA1704 /// LOC100996395 / RFU, ING1 / Fold change vs veh, ING1 / RFU, TRMT61B / Fold change vs veh, TRMT61B / RFU, FUBP3 / Fold change vs veh, FUBP3 / RFU, TP53 / Fold change vs veh, TP53 / RFU, TNKS2 / Fold change vs veh, TNKS2 / RFU, ZFP14 / Fold change vs veh, ZFP14 / RFU, ACTR2 / Fold change vs veh, ACTR2 / RFU, PPP3R1 / Fold change vs veh, PPP3R1 / RFU, PIK3R1 / Fold change vs veh, PIK3R1 / RFU, HNRNPA1 / Fold change vs veh, HNRNPA1 / RFU, RNF170 / Fold change vs veh, RNF170 / RFU, ZNF28 / Fold change vs veh, ZNF28 / RFU, RNGTT / Fold change vs veh, RNGTT / RFU, OGT / Fold change vs veh, OGT / RFU, BRD1 / Fold change vs veh, BRD1 / RFU, MARS / Fold change vs veh, MARS / RFU, ZNF655 / Fold change vs veh, ZNF655 / RFU, FAHD1 / Fold change vs veh, FAHD1 / RFU, BDP1 / Fold change vs veh, BDP1 / RFU, LRRCC1 / Fold change vs veh, LRRCC1 / RFU, ARID1A / Fold change vs veh, ARID1A / RFU, ZNF146 / Fold change vs veh, ZNF146 / RFU, ZNF330 / Fold change vs veh, ZNF330 / RFU, GPN3 / Fold change vs veh, GPN3 / RFU, C9orf123 / Fold change vs veh, C9orf123 / RFU, N4BP2L2 / Fold change vs veh, N4BP2L2 / RFU, ARFIP1 / Fold change vs veh, ARFIP1 / RFU, FAM179B / Fold change vs veh, FAM179B / RFU, BCL10 / Fold change vs veh, BCL10 / RFU, UHRF1BP1L / Fold change vs veh, UHRF1BP1L / RFU, BET1 / Fold change vs veh, BET1 / RFU, CNOT2 / Fold change vs veh, CNOT2 / RFU, ZNF268 / Fold change vs veh, ZNF268 / Fold change vs veh, ZNF507 / RFU, DGCR2 / Fold change vs veh, DGCR2 / RFU, WDSUB1 / Fold change vs veh, WDSUB1 / Fold change vs veh, HSP90B1 /// MIR3652 / RFU, ADSS / Fold change vs veh, ADSS / RFU, GK / Fold change vs veh, GK / RFU, ZNF148 / Fold change vs veh, ZNF148 / RFU, TAF9 / Fold change vs veh, TAF9 / RFU, SLC1A5 / Fold change vs veh, SLC1A5 / RFU, SLMO2 / Fold change vs veh, SLMO2 / RFU, ABCC4 / Fold change vs veh, ABCC4 / RFU, LOC101060439 /// RAP1B / Fold change vs veh, LOC101060439 /// RAP1B / RFU, RFX7 / Fold change vs veh, RFX7 / RFU, GTPBP10 / Fold change vs veh, GTPBP10 / RFU, CNEP1R1 / Fold change vs veh, CNEP1R1 / RFU, BIVM-ERCC5 /// ERCC5 / Fold change vs veh, BIVM-ERCC5 /// ERCC5 / RFU, ILF3 / Fold change vs veh, ILF3 / RFU 11762660_at / Fold change /veh 11762660_at / RFU VCAN (11757783_s_at) / Fold change /veh VCAN (11757783_s_at) / RFU DDX43 (11728927_at) / Fold change /veh DDX43 (11728927_at) / RFU KRT8 (11758188_x_at) / Fold change /veh KRT8 (11758188_x_at) / RFU NKD1 (11759106_at) / Fold change /veh NKD1 (11759106_at) / RFU SRD5A1 (11742802_a_at) / Fold change /veh SRD5A1 (11742802_a_at) / RFU TPSAB1 /// TPSB2 (11721975_s_at) / Fold change /veh TPSAB1 /// TPSB2 (11721975_s_at) / RFU GSTM3 (11746129_a_at) / Fold change /veh GSTM3 (11746129_a_at) / RFU IL23R (11737362_x_at) / Fold change /veh IL23R (11737362_x_at) / RFU TMEM51 (11727254_a_at) / Fold change /veh TMEM51 (11727254_a_at) / RFU PIWIL2 (11732686_x_at) / Fold change /veh PIWIL2 (11732686_x_at) / RFU ORM1 (11744905_x_at) / Fold change /veh ORM1 (11744905_x_at) / RFU CCDC152 (11743942_at) / Fold change /veh CCDC152 (11743942_at) / RFU ECM1 (11717891_a_at) / Fold change /veh ECM1 (11717891_a_at) / RFU IL23R (11748794_a_at) / Fold change /veh IL23R (11748794_a_at) / RFU TNFAIP8L3 (11732012_x_at) / Fold change /veh TNFAIP8L3 (11732012_x_at) / RFU MBOAT4 (11741988_at) / Fold change /veh MBOAT4 (11741988_at) / RFU 11764193_at / Fold change /veh 11764193_at / RFU TMEM53 (11763286_at) / Fold change /veh TMEM53 (11763286_at) / RFU MAGEB2 (11727129_at) / Fold change /veh MAGEB2 (11727129_at) / RFU TMEM200A (11744735_a_at) / Fold change /veh TMEM200A (11744735_a_at) / RFU CCDC152 (11751479_a_at) / Fold change /veh CCDC152 (11751479_a_at) / RFU FAM211A (11726209_a_at) / Fold change /veh FAM211A (11726209_a_at) / RFU RGS16 (11746705_a_at) / Fold change /veh RGS16 (11746705_a_at) / RFU VCAN (11755009_s_at) / Fold change /veh VCAN (11755009_s_at) / RFU RHOB (11743442_s_at) / Fold change /veh RHOB (11743442_s_at) / RFU RGS16 (11720943_a_at) / Fold change /veh RGS16 (11720943_a_at) / RFU RGS16 (11720944_at) / Fold change /veh RGS16 (11720944_at) / RFU, VPS4B / Fold change vs veh, VPS4B / RFU, CREB1 / Fold change vs veh, CREB1 / RFU, DNAJC13 / Fold change vs veh, DNAJC13 / RFU, GNAQ / Fold change vs veh, GNAQ / RFU, CDK5R1 / Fold change vs veh, CDK5R1 / RFU, ZRANB3 / Fold change vs veh, ZRANB3 / RFU, CUL4A / Fold change vs veh, CUL4A / RFU, CCNY / Fold change vs veh, CCNY / RFU, UFL1 / Fold change vs veh, UFL1 / RFU, COG3 / Fold change vs veh, COG3 / RFU, DIAPH2 / Fold change vs veh, DIAPH2 / RFU, SKA2 / Fold change vs veh, SKA2 / RFU, AFF3 / Fold change vs veh, AFF3 / RFU, LMF1 / Fold change vs veh, LMF1 / RFU, IPO11 / Fold change vs veh, IPO11 / RFU, DFFB / Fold change vs veh, DFFB / RFU, FOXP1 / Fold change vs veh, FOXP1 / RFU, CARD8 / Fold change vs veh, CARD8 / RFU, STRN3 / Fold change vs veh, STRN3 / RFU, ADK / Fold change vs veh, ADK / RFU, RASSF2 / Fold change vs veh, RASSF2 / RFU, WIPF1 / Fold change vs veh, WIPF1 / RFU, LARP1B / Fold change vs veh, LARP1B / RFU, RASA1 / Fold change vs veh, RASA1 / RFU, RB1 / Fold change vs veh, RB1 / RFU, PPFIA1 / Fold change vs veh, PPFIA1 / RFU, MAT2A / Fold change vs veh, MAT2A / RFU, CCT5 / Fold change vs veh, CCT5 / RFU, WDR92 / Fold change vs veh, WDR92 / RFU, CUX1 / Fold change vs veh, CUX1 / RFU, TTC7A / Fold change vs veh, TTC7A / RFU, TMEM135 / Fold change vs veh, TMEM135 / RFU, DEPTOR / Fold change vs veh, DEPTOR / RFU, CPM / Fold change vs veh, CPM / RFU, DNAJB6 / Fold change vs veh, DNAJB6 / RFU, CACNA2D3 / Fold change vs veh, CACNA2D3 / RFU, DTX4 / Fold change vs veh, DTX4 / RFU, TFCP2 / Fold change vs veh, TFCP2 / RFU, GMCL1 /// GMCL1P1 / Fold change vs veh, GMCL1 /// GMCL1P1 / RFU, AEBP2 / Fold change vs veh, AEBP2 / RFU, SNHG1 /// SNORD22 /// SNORD25 /// SNORD26 /// SNORD27 /// SNORD28 /// SNORD29 /// SNORD31 / Fold change vs veh, SNHG1 /// SNORD22 /// SNORD25 /// SNORD26 /// SNORD27 /// SNORD28 /// SNORD29 /// SNORD31 / Fold change (Aza/veh), C12orf56 (ProbeSet 11735607_a_at) / Fold change (ACY-1035/veh), C12orf56 (ProbeSet 11735607_a_at) / Fold change (Aza/veh), FGFR1OP (ProbeSet 11751329_s_at) / Fold change (ACY-1035/veh), FGFR1OP (ProbeSet 11751329_s_at) / Fold change (Aza/veh), VPS36 (ProbeSet 11739960_a_at) / Fold change (ACY-1035/veh), VPS36 (ProbeSet 11739960_a_at) / RFU SYPL1 (11715823_x_at) / Fold change /veh SYPL1 (11715823_x_at) / RFU IGFBP7 (11715501_s_at) / Fold change /veh IGFBP7 (11715501_s_at) / RFU REEP3 (11722064_at) / Fold change /veh REEP3 (11722064_at) / RFU IGLL1 (11728026_x_at) / Fold change /veh IGLL1 (11728026_x_at): dose or concentration left out as unconfirmed", "conditions": "ProbeSet 11725141_a_at; LIST B", "data": [{"compound": "Nc1ccc(-c2cccs2)cc1NC(=O)c1ccc2c(c1)cc(C1CC1)n2CCN1CCOCC1", "note": "[ACY-1035]", "values": [{"measurement": "RFU, FUBP3", "value": 490.19, "unit": "RFU"}]}]}
